Calls of active or inactive are those of the source. No cut-off for these calls is given here.
Tests used:
[1] = Cell cycle arrest in human HL60 cells assessed as accumulation at S phase at 10 uM after 24 hrs by propidium iodide-staining based flow cytometry (reference value: 63%); format: functional; conditions: HL-60
HL-60 [2] = test: Reduction in mitochondrial membrane potential in human HL60 cells at 15 uM after 24 hrs by Rh-123-staining based flow cytometry (reference value: 7%); format: functional; parameters: scale not given: the % may be the effect or the level left
HL-60 [3] = test: Reduction in mitochondrial membrane potential in human HL60 cells at 10 uM after 24 hrs by Rh-123-staining based flow cytometry (reference value: 7%); format: functional; parameters: scale not given: the % may be the effect or the level left
[4] = Growth inhibition of human HL60 cells after 24 hrs by MTT assay; format: functional, cell-based; conditions: HL-60, 24 h
SK-N-SH [5] = test: Growth inhibition of human SK-N-SH cells at 50 uM after 72 hrs by MTT assay; format: functional; conditions: read-out: GI
[6] = Cell cycle arrest in human HL60 cells assessed as apoptotic cells at 10 uM after 24 hrs by propidium iodide-staining based flow cytometry (reference value: 3%); format: functional; conditions: HL-60
HL-60 [7] = test: Reduction in mitochondrial membrane potential in human HL60 cells at 20 uM after 24 hrs by Rh-123-staining based flow cytometry (reference value: 7%); format: functional; parameters: scale not given: the % may be the effect or the level left
SK-N-SH [8] = test: Growth inhibition of human SK-N-SH cells at 30 uM after 72 hrs by MTT assay; format: functional; conditions: read-out: GI
[9] = Cell cycle arrest in human HL60 cells assessed as accumulation at S phase at 20 uM after 24 hrs by propidium iodide-staining based flow cytometry (reference value: […]); format: functional; conditions: HL-60
MCF7 [10] = test: Growth inhibition of human MCF7 cells at 50 uM after 72 hrs by MTT assay; format: functional; conditions: MCF7, 72 h, read-out: GI
[11] = Cell cycle arrest in human HL60 cells assessed as accumulation at G2 phase at 15 uM after 24 hrs by propidium iodide-staining based flow cytometry (reference value: […]); format: functional; conditions: HL-60
MCF7 [12] = test: Growth inhibition of human MCF7 cells after 72 hrs by MTT assay; format: functional, cell-based; conditions: MCF7, 72 h
HL-60 [13] = test: Induction of apoptosis in human HL60 cells assessed as apoptotic bodies formation after 24 hrs by Hoechst 33342-staining based fluorescence microscopy; format: functional, cell-based
[14] = Growth inhibition of human MIAPaCa2 cells at 30 uM after 72 hrs by MTT assay; format: functional; conditions: MIA PaCa-2, 72 h, read-out: GI
[15] = Cell cycle arrest in human HL60 cells assessed as apoptotic cells at 20 uM after 24 hrs by propidium iodide-staining based flow cytometry (reference value: 3%); format: functional; conditions: HL-60
HepG2 [16] = test: Growth inhibition of human HepG2 cells at 50 uM after 72 hrs by MTT assay; format: functional; conditions: HepG2, 72 h, read-out: GI
HL-60 [17] = test: Induction of apoptosis in human HL60 cells assessed as effect on morphology at 5 to 20 uM after 24 hrs by phase-contrast microscopy; format: functional, cell-based
[18] = Cell cycle arrest in human HL60 cells assessed as accumulation at G1 phase at 10 uM after 24 hrs by propidium iodide-staining based flow cytometry (reference value: 36%); format: functional; conditions: HL-60
[19] = Growth inhibition of human HL60 cells after 72 hrs by MTT assay; format: functional, cell-based; conditions: HL-60, 72 h
[20] = Cell cycle arrest in human HL60 cells assessed as accumulation at G2 phase at 5 uM after 24 hrs by propidium iodide-staining based flow cytometry (reference value: 1%); format: functional; conditions: HL-60
SK-N-SH [21] = test: Growth inhibition of human SK-N-SH cells after 72 hrs by MTT assay; format: functional, cell-based
[22] = Growth inhibition of human HL60 cells at 30 uM after 72 hrs by MTT assay; format: functional; conditions: HL-60, 72 h, read-out: GI
HepG2 [23] = test: Growth inhibition of human HepG2 cells after 72 hrs by MTT assay; format: functional, cell-based; conditions: HepG2, 72 h
[24] = Cell cycle arrest in human HL60 cells assessed as accumulation at G2 phase at 10 uM after 24 hrs by propidium iodide-staining based flow cytometry (reference value: 1%); format: functional; conditions: HL-60
HL-60 [25] = test: Reduction in mitochondrial membrane potential in human HL60 cells at 5 uM after 24 hrs by Rh-123-staining based flow cytometry (reference value: 7%); format: functional; parameters: scale not given: the % may be the effect or the level left
MCF7 [26] = test: Growth inhibition of human MCF7 cells at 30 uM after 72 hrs by MTT assay; format: functional; conditions: MCF7, 72 h, read-out: GI
[27] = Growth inhibition of human MIAPaCa2 cells at 50 uM after 72 hrs by MTT assay; format: functional; conditions: MIA PaCa-2, 72 h, read-out: GI
[28] = Cell cycle arrest in human HL60 cells assessed as accumulation at G1 phase at 20 uM after 24 hrs by propidium iodide-staining based flow cytometry (reference value: 36%); format: functional; conditions: HL-60
[29] = Cell cycle arrest in human HL60 cells assessed as accumulation at S phase at 15 uM after 24 hrs by propidium iodide-staining based flow cytometry (reference value: 63%); format: functional; conditions: HL-60
[30] = Cell cycle arrest in human HL60 cells assessed as accumulation at G2 phase at 20 uM after 24 hrs by propidium iodide-staining based flow cytometry (reference value: […]); format: functional; conditions: HL-60
[31] = Growth inhibition of human MIAPaCa2 cells after 72 hrs by MTT assay; format: functional, cell-based; conditions: MIA PaCa-2, 72 h
[32] = Cell cycle arrest in human HL60 cells assessed as accumulation at S phase at 5 uM after 24 hrs by propidium iodide-staining based flow cytometry (reference value: 63%); format: functional; conditions: HL-60
[33] = Cell cycle arrest in human HL60 cells assessed as apoptotic cells at 15 uM after 24 hrs by propidium iodide-staining based flow cytometry (reference value: 3%); format: functional; conditions: HL-60
[34] = Cell cycle arrest in human HL60 cells assessed as apoptotic cells at 5 uM after 24 hrs by propidium iodide-staining based flow cytometry (reference value: 3%); format: functional; conditions: HL-60
[35] = Cell cycle arrest in human HL60 cells assessed as accumulation at G1 phase at 5 uM after 24 hrs by propidium iodide-staining based flow cytometry (reference value: 36%); format: functional; conditions: HL-60
HepG2 [36] = test: Growth inhibition of human HepG2 cells at 30 uM after 72 hrs by MTT assay; format: functional; conditions: HepG2, 72 h, read-out: GI
[37] = Cell cycle arrest in human HL60 cells assessed as accumulation at G1 phase at 15 uM after 24 hrs by propidium iodide-staining based flow cytometry (reference value: 36%); format: functional; conditions: HL-60
[38] = Growth inhibition of human HL60 cells at 50 uM after 72 hrs by MTT assay; format: functional; conditions: HL-60, 72 h, read-out: GI
HL-60 [39] = test: Induction of apoptosis in human HL60 cells assessed as apoptotic bodies formation at 5 to 20 uM after 24 hrs by Hoechst 33342-staining based fluorescence microscopy; format: functional, cell-based

SMILES | Activity [1] | Activity (HL-60 [2]) | Activity (HL-60 [3]) | IC50 [4] | inhibition of growth at 50 µM (SK-N-SH [5]) | Activity [6] | Activity (HL-60 [7]) | inhibition of growth at 30 µM (SK-N-SH [8]) | Activity [9] | inhibition of growth at 50 µM (MCF7 [10]) | Activity [11] | IC50 (MCF7 [12]) | inhibition of growth at 30 µM [14] | Activity [15] | inhibition of growth at 50 µM (HepG2 [16]) | Activity (HL-60 [17]) | Activity [18] | IC50 [19] | Activity [20] | IC50 (SK-N-SH [21]) | further results
C=CCc1cc(O)c(O)c(CN2CCNCC2)c1 | 37% | 45% | 44% | 12 µM | 69.9% | 11% | 46% | 65.3% | 44% | 74.2% | 11% | 12 µM | 82.8% | 88% | 73% | Active | 59% | 2 µM | 2% | 14 µM | Activity (HL-60 [13]): Dose-dependent effect; inhibition of growth at 30 µM [22]: 92.5%; IC50 (HepG2 [23]): 20 µM; Activity [24]: 4%; Activity (HL-60 [25]): 38%; inhibition of growth at 30 µM (MCF7 [26]): 69.2%; inhibition of growth at 50 µM [27]: 85.6%; Activity [28]: 52%; Activity [29]: 39%; Activity [30]: 4%; IC50 [31]: 4 µM; Activity [32]: 57%; Activity [33]: 27%; Activity [34]: 8%; Activity [35]: 41%; inhibition of growth at 30 µM (HepG2 [36]): 64.2%; Activity [37]: 50%; inhibition of growth at 50 µM [38]: 94.4%
C=CCc1cc(O)c(O)c(CN2CCN(c3ccccc3O)CC2)c1 | 52% | 59% | 44% | 10 µM | 79.5% | 12% | 71% | 69.2% | 44% | 79.7% | 1% | 9 µM | 88.7% | 89% | 82.8% | Active | 41% | 1 µM | 1% | 11 µM | Activity (HL-60 [13]): Dose-dependent effect; inhibition of growth at 30 µM [22]: 90.3%; IC50 (HepG2 [23]): 16 µM; Activity [24]: 7%; Activity (HL-60 [25]): 38%; inhibition of growth at 30 µM (MCF7 [26]): 77.7%; inhibition of growth at 50 µM [27]: 89.9%; Activity [28]: 51%; Activity [29]: 78%; Activity [30]: 5%; IC50 [31]: 3 µM; Activity [32]: 52%; Activity [33]: 52%; Activity [34]: 7%; Activity [35]: 47%; inhibition of growth at 30 µM (HepG2 [36]): 72.8%; Activity [37]: 21%; inhibition of growth at 50 µM [38]: 93.5%
C=CCc1ccc(O)c(O)c1 [HYDROXYCHAVICOL] | 54% | 26% | 22% | 50 µM | 71.7% | 9% | 42% | 34.2% | 67% | 44.1% | 22% | > 30 µM | 41.7% | 10% | 29.3% | Active | 37% | 3 µM | 8% | > 30 µM | inhibition of growth at 30 µM [22]: 88.8%; IC50 (HepG2 [23]): > 30 µM; Activity [24]: 9%; Activity (HL-60 [25]): 17%; inhibition of growth at 30 µM (MCF7 [26]): 36.9%; inhibition of growth at 50 µM [27]: 42.8%; Activity [28]: 27%; Activity [29]: 61%; Activity [30]: 6%; IC50 [31]: > 30 µM; Activity [32]: 57%; Activity [33]: 10%; Activity [34]: 5%; Activity (HL-60 [39]): Active; Activity [35]: 35%; inhibition of growth at 30 µM (HepG2 [36]): 27.2%; Activity [37]: 17%; inhibition of growth at 50 µM [38]: 92.4%

From ChEMBL document CHEMBL3407403, “Synthetic modification of hydroxychavicol by Mannich reaction and alkyne-azide cycloaddition derivatives depicting cytotoxic potential” (Eur J Med Chem, 2015)
